Here are results for seven molecules from patent US9119845B2, “Method for the treatment of neurological disorders by enhancing the activity of beta-glucocerebrosidase” (Amicus Therapeautics, Inc., priority 2006, dated 2015).

For orientation: IC50 means the point on the concentration scale where inhibition reaches its midpoint.

Counter-ions that a name gives are not always drawn. Like-named read-outs stand apart in the source and are kept apart here.

Series [1] concerns the target T1, GCase (Homo sapiens (Human), UniProt P04062). The series can be described thus: biochemical.
Series [2] has as its target T1, GCase. The note with it: read-out: IC50 for GCase; printed in synthesis headings.
Series [3] relates to α-synuclein. The series can be described thus: α-synuclein accumulation in brains of V394L homozygous knock-in mice treated with CBE. The class given is in vivo, mouse. Particulars: CBE daily intraperitoneally for 30 days. The protocol: Mice homozygous for the point mutations D409H or V394L and expressing a low level of saposin C in a prosaposin knock-out background, were analyzed for accumulation of α-synuclein in the brain. These mice have been reported to accumulate glucosylceramide in the brain. Mice homozygous for the point mutations V394L only, were analyzed for α-synuclein accumulation with and without CBE treatment. […] Mice were administered CBE daily by interperitonally injection for 30 consequitive days ([…] calculated from the total weight of the mouse) and brains were analyzed by immunohistochemistry for accumulation of α-synuclein.
Brain tissue was frozen and fixed for immunohistochemistry with 4% paraformaldehyde and serial sections were co-labelled with anti-human α-synuclein (ab1903; Abcam, Cambridge, Mass.) and rabbit anti-ubiquitin (ab7780; Abcam, Cambridge, Mass.).

The target of series [4] is α-galactosidase A (Homo sapiens (Human), UniProt P06280). Particulars: healthy volunteers, 50 mg b.i.d. and 150 mg b.i.d.; cited from earlier work.
Series [5] in a line: Phase I studies in healthy volunteers: pharmacokinetics of oral IFG tartrate. The note with it: for half-life: both sexes, human, plasma. The format is in vivo, human. The protocol: (§1) In a first-in-human single ascending dose study (1a), doses of 8, 25, 75, 150 (two cohorts), and 300 mg were administered (6 active, 2 placebo in each cohort). In a multiple ascending dose study (1b), doses of 25, 75, and 225 mg were administered daily for seven days (6 active, 2 placebo in each cohort). In both studies, of the eight subjects in each group; six were randomized to receive IFG tartrate, and two subjects received placebo. Subjects were confined from the evening of day-1 until 24 hrs after completion of dosing. In the phase 1a study subjects returned at 48 hrs (PK sampling) and 7 days (safety follow-up) following dosing. In the phase 1b study subjects returned at 48 h (PD sampling), 7 days (PD sampling and safety follow-up), and 14 days (PD sampling) following the last dose
Subjects were healthy male and female volunteers between 19 and 55 years of age (inclusive) consisting of members of the community at large.
Blood samples (10 mL each) were collected in blood collection tubes containing EDTA before dosing was determined at regular intervals for the phas 1a during 48 hr following dosing. In the phase 1b study a full IFG tartrate pharmacokinetic profile was determined for 24 hr following the first dose, Cmin values were obtained pre-dose on day 6 and 7, and another full profile was determined for 24 hr following the final, day 7, dose.
(§2) GCase activity was determined pre-dose on days 1, 3, 5, 7, 9, 14, and 21. Blood samples were cooled in an ice bath and centrifuged under refrigeration as soon as possible. Plasma samples were divided into two aliquots and stored at […] pending assay. At the end of the study, all samples were transferred to MDS Pharma Services Analytical Laboratories (Lincoln) for analysis.

Series [6] has as its target T1, GCase. Nature of the series: Phase I multiple-dose study: GCase enzymatic activity in healthy volunteers. The class given is in vivo. Particulars: dose-related, during treatment period, FIG. 2. The protocol: as §1, §2
Series [7] deals with wild-type GCase (Mus musculus (Mouse), UniProt P17439). The series can be described thus: In vivo GCase activity in normal C57BL6 mice upon treatment with IFG. The protocol: This Example provides information on the effects of isofagomine, a GCase-specific chaperone on mice. IFG were administered to the mice at 200 mg/kg/day; organs and plasma were collected 4 weeks after initiation of the study. Ten male C57BL6 (25 g) mice per group were used. The drug was be given in the drinking water, therefore water consumption was monitored daily.
In the control group (0 mg/kg/day), the mice were dosed daily in the drinking water (no drug) and divided into two groups. Ten animals were euthanized after 4 weeks of treatment, blood was collected from the descending aorta or vena cava, and tissues were harvested and then necropsied.
In the test group, 10 mice were dosed daily in the drinking water with an administration aim of 200 mg/kg/day.
The blood samples were drawn into lithium heparin and spun for plasma. After bleeding, the spleen, lung, brain and liver were removed and placed into vials. The vials were put into dry ice for rapid freezing. The tissues and plasma were then analyzed for tissue levels of GCase.
Small portions of tissue were removed and added to 500 μl lysis buffer (20 mM sodium citrate and 40 mM disodium hydrogen phosphate, pH 4.0, including 0.1% Triton X-100). Tissues were then homogenized using a microhomogenizer for a brief time, followed by centrifugation at 10,000 rpm for 10 minutes at 4° C. Supernatants were transferred to a new tube and used for the enzyme assay.
The enhancement ratio is equal to the activity with the compound over the activity without the compound.

Series [8] has as its system α-synuclein. Nature of the series: α-synuclein immunohistochemistry in brains of transgenic mice over-expressing human α-synuclein. The class given is in vivo, mouse. The protocol:
48 transgenic animals (male and female) were allocated to 6 groups (n=8) at an age of 5 to 6 weeks concerning baseline and 3 to 4 weeks, respectively concerning all other treatment groups at treatment start. One group of transgenic animals served as baseline group (5 weeks old) and was sacrificed untreated on day 0. One group of transgenic animals was treated with vehicle.
Mice (ages 3-4 weeks) were treated once daily (orally) at either 2 mg/kg; 20 mg/kg; or 200 mg/kg of IFG tartrate for 3 months. One group also was treated once every other day at 20 mg/kg.
Animals of the baseline group were sacrificed at an age of 5 weeks. All other animals were sacrificed at the end of the 3 months treatment period and blood for preparation of serum and macrophages as well as lung, brain and CSF were extracted. Therefore, all mice were sedated by standard inhalation anesthesia (Isofluran, Baxter). Cerebrospinal fluid was obtained by blunt dissection and exposure of the foramen magnum. Upon exposure, a Pasteur pipette was inserted to the approximate depth of 0.3-1 mm into the foramen magnum. CSF was collected by suctioning and capillary action until flow fully ceases. CSF was immediately frozen and kept at −80° C.
The brains were removed and hemisected. The right hemispheres of all mice were immersion fixed in freshly produced 4% paraformaldehyde/PBS (pH 7.4) for one hour at room temperature. Thereafter brains were transferred to a 15% sucrose PBS solution for 24 hours to ensure cryoprotection. On the next day brains were frozen in liquid isopentane and stored at −80° C. until used for histological investigations. To determine the effects of the IFG-tartrate treatment from 8 animals per group 10 μm-thick cryosections were cut for determination of alpha-synuclein pathology. All organs and tissues mentioned were sampled and from specific brain regions i.e. hippocampus, midbrain, frontal cortex and striatum of one hemibrain were extracted and frozen. The other brain half was processed for histological evaluation.
For evaluation of the number of α-synuclein positive cells and Lewy body like inclusions an immunohistochemical staining was carried out using the monoclonal human alpha-synuclein specific antibody (Alexis®; Cat #804-258-L001), dilution 1:5, detected with secondary Cy2 antibody (Jackson Immunoresearch®). The number of alpha-synuclein positive cells in five different layers, one slice per layer, was counted for evaluation in the whole hippocampus and cortex separately.
Briefly, samples were washed for 10 min with PBS at room temperature, followed by fixing for 30 min at room temperature with 4% paraformaldehyde, followed by washing 2 times for 5 min each with PBS at room temperature. For Proteinase K-treated sections, sections were incubated in PBS containing 10 μg/ml proteinase-K for 10 minutes at room temperature. Next, samples were incubated for 15 min at room temperature with blocking solution to block endogenous peroxidase, followed by two more 5 min washes with PBS. Samples were then incubated for 60 min at room temperature with a blocking reagent to block non-specific binding, followed by two more 5 min washes with PBS. Samples were then incubated with M.O.M. diluent for 5 min at room temperature, followed by incubation with the primary antibody (dilution 1:5 in M.O.M. diluent) for 60 min with at room temperature.
After an hour, samples were washed 2 times for 5 min with PBS at room temperature, and incubated for another 60 min at room temperature with blocking reagent. Following two washes, samples were incubated with secondary Ab Cy 2-Goat Anti-Rat (Dilution 1:200 in M.O.M.) for 60 minutes at room temperature, in the absence of light. Samples were then washed for 5 min with PBS, for 5 min with sterile, molecular-biology grade water, and covered with polyvinyl alcohol.
For evaluation of the α-synuclein immunoreactivity, specialized image analysis software (Image Pro Plus, version 4.5.1.29) was used. […]

Series [9] is described as follows: Phase I studies in healthy volunteers: safety and tolerability. The class given is in vivo, human. The note with it: both Phase I studies. The protocol: as §1, with “last dose […]” for “last dose”
Safety was determined by evaluating vital signs, laboratory parameters (serum chemistry, hematology, and urinalysis), physical examination and by recording adverse events during the Treatment Period.
Safety data including laboratory evaluations, physical exams, adverse events, ECG monitoring and vital signs assessments were summarized by treatment group and point of time of collection. Descriptive statistics (arithmetic mean, standard deviation, median, minimum and maximum) were calculated for quantitative safety data as well as for the difference to baseline. […]

The mark [10] stands for this setting: normal C57BL6 mice, 200 mg/kg/day in drinking water, FIG. 1.

Chain of wild-type GCase (P17439 20-515): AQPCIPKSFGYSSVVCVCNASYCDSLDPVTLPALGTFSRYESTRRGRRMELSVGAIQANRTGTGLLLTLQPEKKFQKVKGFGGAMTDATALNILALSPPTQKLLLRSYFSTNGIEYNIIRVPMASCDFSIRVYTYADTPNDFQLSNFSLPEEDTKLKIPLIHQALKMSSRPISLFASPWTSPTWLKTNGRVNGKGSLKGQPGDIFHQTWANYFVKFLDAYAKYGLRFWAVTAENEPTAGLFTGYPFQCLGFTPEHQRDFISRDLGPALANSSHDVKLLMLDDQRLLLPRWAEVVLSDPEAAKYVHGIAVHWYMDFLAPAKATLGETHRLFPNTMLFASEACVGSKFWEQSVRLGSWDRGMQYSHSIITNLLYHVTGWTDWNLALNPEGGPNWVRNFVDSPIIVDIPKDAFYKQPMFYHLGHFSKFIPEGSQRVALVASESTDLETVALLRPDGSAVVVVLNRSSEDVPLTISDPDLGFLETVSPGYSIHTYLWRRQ
T1 sequence (P04062 40-536): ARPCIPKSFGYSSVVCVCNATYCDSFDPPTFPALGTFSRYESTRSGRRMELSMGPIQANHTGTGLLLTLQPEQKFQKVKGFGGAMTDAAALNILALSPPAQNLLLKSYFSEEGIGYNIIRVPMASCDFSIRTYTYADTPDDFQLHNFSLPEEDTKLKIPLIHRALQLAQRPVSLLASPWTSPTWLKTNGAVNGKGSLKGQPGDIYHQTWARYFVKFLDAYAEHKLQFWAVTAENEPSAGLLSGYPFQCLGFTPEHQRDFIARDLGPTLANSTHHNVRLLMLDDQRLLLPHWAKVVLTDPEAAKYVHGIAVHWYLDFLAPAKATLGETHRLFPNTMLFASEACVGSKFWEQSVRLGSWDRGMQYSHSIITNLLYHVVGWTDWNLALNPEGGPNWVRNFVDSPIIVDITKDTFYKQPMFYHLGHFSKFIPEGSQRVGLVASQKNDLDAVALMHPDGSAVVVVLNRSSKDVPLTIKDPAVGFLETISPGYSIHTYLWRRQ
Chain of α-galactosidase A (P06280 32-429): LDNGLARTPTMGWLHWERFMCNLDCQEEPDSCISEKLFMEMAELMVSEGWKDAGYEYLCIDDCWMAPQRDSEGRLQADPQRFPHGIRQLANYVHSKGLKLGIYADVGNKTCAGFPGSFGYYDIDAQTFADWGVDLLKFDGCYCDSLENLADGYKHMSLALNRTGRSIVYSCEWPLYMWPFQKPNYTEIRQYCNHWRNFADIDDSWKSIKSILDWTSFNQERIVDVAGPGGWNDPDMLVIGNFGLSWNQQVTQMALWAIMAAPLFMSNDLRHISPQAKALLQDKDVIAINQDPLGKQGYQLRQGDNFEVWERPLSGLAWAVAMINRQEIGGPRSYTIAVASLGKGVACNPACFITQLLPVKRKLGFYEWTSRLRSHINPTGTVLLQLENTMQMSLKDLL

In series [1], `CC(C)(C)CCc1cn2c(n1)[C@H](O)[C@@H](O)[C@H](O)[C@H]2CO` [(5R,6R,7S,8S)-5-Hydroxymethyl-2-(3,3-dimethylbutyl)-5,6,7,8-tetrahydro-imidazo[1,2-a]pyridine-6,7,8-triol] returned an IC50 of about 0.03 nM.
On the same count and under the same terms, in the case of `CCCCCCCCc1cn2c(n1)[C@H](O)[C@@H](O)[C@H](O)[C@H]2CO` [(5R,6R,7S,8S)-5-Hydroxymethyl-2-n-octyl-5,6,7,8-tetrahydroimidazo[1,2-a]pyridine-6,7,8-triol] it was about 0.07 nM.
Turning to `CC(C)(C)C#Cc1cn2c(n1)[C@H](OCc1ccccc1)[C@@H](OCc1ccccc1)[C@H](OCc1ccccc1)[C@H]2COCc1ccccc1` [(5R,6R,7S,8S)-6,7,8-Tris(benzyloxy)-5-[(benzyloxy)methyl]-2-(3,3-dimethylbyt-1-ynyl)-5,6,7,8-tetrahydroimidazo[1,2-a]pyridine], the IC50 in [2] is about 1.1 nM.
As for `O[C@H]1[C@H](O)[C@@H](O)[C@@H]2O[C@@H]2[C@@H]1O` [CBE, conduritol-β-epoxide], in series [3], the “α-synuclein in the brain” value is reported as “resulted in accumulation of α-synuclein in the brain”.
For `OC[C@H]1NC[C@H](O)[C@@H](O)[C@H]1O` [DGJ, 1-deoxygalactonojirimycin], the “α-galactosidase A activity in white blood cells” value in series [4] was “dose-dependent increase”.
As to `OC[C@H]1CNC[C@@H](O)[C@@H]1O` [IFG, (3R,4R,5R)-5-(hydroxymethyl)-3,4-piperidinediol], the half-life in series [5] (oral, repeated doses of 25 to 225 mg, read-out: mean half-lives) fell in the range of 5.14 to 19.9 h. The “accumulation based on AUC and Cmax comparisons on Day 1 and Day 7” value in series [5] (repeated doses of 25 to 225 mg) is on record as “Minimal accumulation”. Also, the “increase in GCase enzyme levels above baseline” value in series [6] was “approximately 3.5 fold”. In series [7] (setting [10]), the “GCase levels in brain” value is “increased”, the “GCase levels in liver” value is on record as “increased”, the “GCase levels in lung” value is “increased” and the “GCase levels in spleen” value is recorded as “increased”. In addition, in [7] (separate experiment, mice treated with 0, 1, 10, or 100 mg/kg/day), the “wild-type GCase activity, dose response” value is given as “linear dose-response increase”.
Regarding `OC[C@H]1CNC[C@@H](O)[C@@H]1O` [isofagomine tartrate], the half-life in [5] (single-dose study, oral, read-out: plasma elimination half-life (converted)) is 14 h. Further, the “systemic exposure via the oral route” value in series [5] (healthy volunteers, oral) was “good systemic exposure”. Besides, the “pharmacokinetic behavior and accumulation after 7 days of oral administration” value in series [5] (multiple-dose study, 25, 75, 225 mg daily for seven days) is listed as “linear with dose, with no unexpected accumulation”. The “plasma AUC and Cmax versus dose” value in series [5] (single-dose study, 8 to 300 mg oral) is given as “linearly correlated with administered dose”. In addition, in series [5] (single-dose study, oral), the “time at which mean plasma levels peaked” value turned out to be 3.4 h. For the same molecule, the “α-synuclein positive cell load versus baseline, both regions averaged” value in series [8] (2 mg/kg daily for 3 months, p>0.05 versus baseline) was “prevented mice from the age-accompanied increase of pathology”. Moreover, in series [8] (2 mg/kg once daily orally for 3 months, p<0.05, FIG. 6B), the “number of α-synuclein immunoreactive cells in the hippocampus versus vehicle-treated controls” value is recorded as “reduced the number of immunoreactive cells in the hippocampus significantly”. Also, the “α-synuclein pathology versus controls at 20 mg dose” value in series [8] (20 mg/kg daily or every other day for 3 months) was “not effective versus controls”. Besides, the “accumulation of Proteinase K resistant α-synuclein aggregates” value in series [8] (20 mg/kg, 3 months, single responding animal, FIG. 5) was “prevents the accumulation of these α-synuclein aggregates”. For the same molecule, the “qualitative α-synuclein staining in cortex and hippocampus” value in [8] (2 and 20 mg/kg b.w. daily, some of the treated animals, FIGS. 3 and 4) was “strongly decreased background and decreased α-synuclein positive cell numbers”. For the same molecule, the “α-synuclein pathology in the cortex” value in series [8] (oral treatment for 3 months, FIG. 6A) is listed as “did not reach significance level”. In [9], the serious adverse events entry is reported as “No serious adverse events occurred”. Also, in series [9] (all doses), the tolerability result was “generally well tolerated”.
